Structures can show the parent of a compound that is named as a salt.
Tests used:
[1] = Solubility of metal salt ligands in nonanal with added solubilizing agent; assay type: physicochemical; settings: 25° C., nonanal with 1:4 CARBOWAX TPEG-900/TERGITOL NP-9
[2] = Continuous single pass hydroformylation of butene-1 (Examples 3, 4, 5, 7, 12)
Experimental: Continuous hydroformylation of butene-1 a monosulfonated triphenylphosphine metal salt ligand was conducted in the following manner.
The non-aqueous hydroformylation was conducted in a glass reactor operating in a continuous single pass butene-1 hydroformylation mode. The reactor consisted of a three-ounce pressure bottle submersed in an oil bath with a lass front for viewing. About 20-mL of a freshly prepared rhodium catalytic precursor solution was charged to the reactor with a syringe, after purging the system with nitrogen. […] After closing the reactor, the system was again purged with nitrogen and the oil bath was heated to furnish the desired hydroformylation reaction temperature. The hydroformylation reaction was conducted at a total gas pressure of about 160 psig., the partial pressures of hydrogen, carbon monoxide, and butene-1 being given in Table 3 below, the remainder being nitrogen and aldehyde product.
The flows of the feed gases (carbon monoxide, hydrogen, butene-1 and nitrogen) were controlled individually with mass flow meters and the feed gases dispersed into the precursor solution via microporous stainless steel spargers. The unreacted portion of the feed gases was stripped out with the product C5 aldehydes and the outlet gas analyzed over about 12 days of continuous operation.

[3] = Solubility of metal salt ligands in different aldehydes; assay type: physicochemical
[4] = Batch hydroformylation of propylene in stirred autoclave (Examples 1, 2, 11, 14, 19); settings: 200 ppm Rh, about 120 mole equivalents ligand, 100° C., 90 psia 1:1:1 H2:CO:C3H6; for Linear/Branched Aldehyde Mole Ratio: Texanol/Carbowax PEG-600: Li 100:0, K 9:1, Rb 8:1, Ca 20:1, Ba 7:1; for Reaction Rate (C4 aldehydes): Texanol/Carbowax PEG-600: Li 100:0, K 9:1, Rb 8:1, Cs 7:1, Ca 20:1, Ba 7:1, Sr 18:1
Experimental: A series of various rhodium complex catalyst precursor solutions consisting essentially of the solubilized reaction product of rhodium dicarbonyl acetylacetonate and various monosulfonated triphenylphosphine metal salt ligands were prepared and employed to hydroformylate propylene into C4 aldehydes in the following manner.
Each rhodium catalytic precursor solution so prepared was then employed to hydroformylate propylene in a magnetically stirred, 100 mL capacity, stainless steel autoclave which was attached to a gas manifold for introducing gases to the desired partial pressures. The autoclave was also equipped with a pressure calibrator for determining reaction pressure to ±0.01 psia. and a platinum resistance thermometer for determining reactor solution temperatures to ±0.10° C. The reactor was heated externally by two 300 watt heating bands. The reactor solution temperature was controlled by a platinum resistance sensor connected to an external proportional temperature controller for controlling the temperature of the external band heaters.
In each non-aqueous hydroformylation reaction, about 15 milliliters (about 14 grams) of the rhodium catalytic precursor solution so prepared was charged to the autoclave reactor under nitrogen and heated to the reaction temperature employed (as given in Table 1 below). The reactor was then vented down to 5 psig. and a premixed gas mixture of 1:1:1 carbon monoxide:hydrogen:propylene was introduced into the reactor via the gas manifold (partial pressures given in Table 1) and the propylene so hydroformylated.
A comparison of the catalytic activity of aqueous and non-aqueous solutions of monosulfonated triphenylphosphine sodium salt ligand promoted catalysts in hydroformylating various molecular weight alphe-olefins was determined as follows.
Both the aqueous and non-aqueous hydroformylation reactions were conducted under identical conditions with regard to temperature, rhodium and ligand concentration, hydrogen and carbon monoxide partial pressure and olefin concentration.

[5] = Continuous hydroformylation of propylene (Example 8); settings: Texanol/PEG-600 8:1
[6] = Batch hydroformylation of dodecene-1 (Examples 13, 14, 18, 19); settings: heptanal, 100° C., 200 ppm Rh, 60 psia 2:1 H2:CO
[7] = Texanol, day 0.8, 101 °C, CO 18, H2 48, C4H8 19
[8] = Texanol, day 4.0, 101 °C, CO 17, H2 52, C4H8 49
[9] = Texanol, day 6.0, 101 °C, CO 17, H2 52, C4H8 50
[10] = Texanol, day 6.9, 101 °C, CO 19, H2 50, C4H8 41
[11] = Texanol, day 8.0, […], CO 18, H2 56, C4H8 38
[12] = Texanol, day 9.0, […], CO 18, H2 57, C4H8 38
[13] = Texanol, day 10.0, […], CO 18, H2 57, C4H8 38
[14] = Texanol, day 10.7, […], CO 18, H2 57, C4H8 38
[15] = Texanol, day 11.6, 103 °C, CO 18, H2 57, C4H8 38
[16] = day 1.0, 99 °C, CO 33, H2 53, C3H6 17 psia
[17] = day 2.0, 106 °C, CO 28, H2 54, C3H6 18 psia
[18] = day 3.0, […], CO 23, H2 55, C3H6 19 psia
[19] = day 4.0, […], CO 23, H2 55, C3H6 19 psia
[20] = day 4.9, 104 °C, CO 23, H2 55, C3H6 19 psia
[21] = day 5.8, 103 °C, CO 23, H2 55, C3H6 20 psia
[22] = day 6.7, 98 °C, CO 24, H2 56, C3H6 20 psia
[23] = CARBOWAX PEG-600, two liquid organic layers
[24] = TERGITOL 15-S-7/Carbowax TPEG-990 (3:1)
[25] = TERGITOL 24-L-75N/CARBOWAX TPEG-990 (4:1)
[26] = Texanol/PEG-600 7:1, day 1.0, 101 °C, CO 18, H2 70, C4H8 11 psia
[27] = Texanol/PEG-600 7:1, day 1.8, 101 °C, CO 16, H2 62, C4H8 14 psia
[28] = Texanol/PEG-600 7:1, day 5.0, 101 °C, CO 12, H2 66, C4H8 19 psia
[29] = Texanol/PEG-600 7:1, day 5.9, 101 °C, CO 13, H2 66, C4H8 20 psia
[30] = Texanol/PEG-600 7:1, day 6.9, 101 °C, CO 14, H2 62, C4H8 22 psia
[31] = Texanol/PEG-600 7:1, day 7.0 (so in the source), […], CO 18, H2 62, C4H8 22 psia
[32] = Texanol/PEG-600 7:1, day 7.9, 101 °C, CO 16, H2 55, C4H8 24 psia
[33] = Texanol/PEG-600 7:1, day 9.0, […], CO 18, H2 60, C4H8 23 psia
[34] = Texanol/PEG-600 7:1, day 11.0, […], CO 19, H2 63, C4H8 21 psia
[35] = Texanol/PEG-600 7:1, day 11.7, […], CO 20, H2 63, C4H8 21 psia
[36] = Texanol/PEG-600 7:1, day 12.6, 103 °C, CO 20, H2 63, C4H8 22 psia

O=S(=O)(O)c1cccc(P(c2ccccc2)c2ccccc2)c1 [TPPMS-Li, monosulfonated triphenylphosphine lithium salt]
Metal Salt Solubility ([1]; lithium salt): 12 Wt. %
Linear/Branched Aldehyde Mole Ratio [2, 7]: 30.34
Rate (C5 aldehydes), daily average [2, 7]: 1.02 gmoles/L/Hr
Linear/Branched Aldehyde Mole Ratio [2, 8]: 11.20
Rate (C5 aldehydes), daily average [2, 8]: 1.25 gmoles/L/Hr
Rate (C5 aldehydes), daily average ([2]; Texanol, day 4.8, 101 °C, CO 17, H2 52, C4H8 50): 1.19 gmoles/L/Hr
Linear/Branched Aldehyde Mole Ratio [2, 9]: 2.98
Rate (C5 aldehydes), daily average [2, 9]: 1.27 gmoles/L/Hr
Linear/Branched Aldehyde Mole Ratio [2, 10]: 31.75
Rate (C5 aldehydes), daily average [2, 10]: 1.28 gmoles/L/Hr
Linear/Branched Aldehyde Mole Ratio [2, 11]: 40.30
Rate (C5 aldehydes), daily average [2, 11]: 1.28 gmoles/L/Hr
Linear/Branched Aldehyde Mole Ratio [2, 12]: 28.90
Rate (C5 aldehydes), daily average [2, 12]: 1.30 gmoles/L/Hr
Linear/Branched Aldehyde Mole Ratio [2, 13]: 29.63
Rate (C5 aldehydes), daily average [2, 13]: 1.27 gmoles/L/Hr
Linear/Branched Aldehyde Mole Ratio [2, 14]: 37.18
Rate (C5 aldehydes), daily average [2, 14]: 1.27 gmoles/L/Hr
Linear/Branched Aldehyde Mole Ratio [2, 15]: 30.18
Rate (C5 aldehydes), daily average [2, 15]: 1.21 gmoles/L/Hr
Metal Salt Solubility ([3]; Butyraldehyde, 60 °C, lithium salt): 0.5 Wt. %
Metal Salt Solubility ([3]; Heptanal, 80 °C, lithium salt): < 0.7 Wt. %
Metal Salt Solubility ([3]; Nonanal, 80 °C, lithium salt): < 0.5 Wt. %
Metal Salt Solubility ([3]; Propionaldehyde, 35 °C, lithium salt): 8.8 Wt. %
Metal Salt Solubility ([3]; Tridecanal, 80 °C, lithium salt): < 0.5 Wt. %
Metal Salt Solubility ([3]; Valeraldehyde, 80 °C, lithium salt): < 0.5 Wt. %
Linear/Branched Aldehyde Mole Ratio ([4]; lithium salt): 6.3
Reaction Rate (C4 aldehydes) ([4]; lithium salt): 0.35 Gmoles/L/Hr

O=S(=O)(O)c1cccc(P(c2ccccc2)c2ccccc2)c1 [TPPMS-Rb, monosulfonated triphenylphosphine rubidium salt]
Metal Salt Solubility [1]: 25 Wt. %
Linear/Branched Aldehyde Mole Ratio [5, 16]: 5.15
Rate (C4 aldehydes), daily average [5, 16]: 1.01 gmoles/L/Hr
Linear/Branched Aldehyde Mole Ratio [5, 17]: 6.19
Rate (C4 aldehydes), daily average [5, 17]: 1.24 gmoles/L/Hr
Linear/Branched Aldehyde Mole Ratio [5, 18]: 5.86
Rate (C4 aldehydes), daily average [5, 18]: 0.68 gmoles/L/Hr
Linear/Branched Aldehyde Mole Ratio [5, 19]: 6.04
Rate (C4 aldehydes), daily average [5, 19]: 0.58 gmoles/L/Hr
Linear/Branched Aldehyde Mole Ratio [5, 20]: 6.12
Rate (C4 aldehydes), daily average [5, 20]: 0.58 gmoles/L/Hr
Linear/Branched Aldehyde Mole Ratio [5, 21]: 6.45
Rate (C4 aldehydes), daily average [5, 21]: 0.58 gmoles/L/Hr
Linear/Branched Aldehyde Mole Ratio [5, 22]: 6.60
Rate (C4 aldehydes), daily average [5, 22]: 0.41 gmoles/L/Hr
Metal Salt Solubility ([3]; Butyraldehyde, 60 °C): 1.4 Wt. %
Metal Salt Solubility ([3]; Heptanal, 80 °C): 3.8 Wt. %
Metal Salt Solubility ([3]; Nonanal, 80 °C): 0.9 Wt. %
Metal Salt Solubility ([3]; Propionaldehyde, 35 °C): 6.6 Wt. %
Metal Salt Solubility ([3]; Tridecanal, 80 °C): 0.5 Wt. %
Metal Salt Solubility ([3]; Valeraldehyde, 80 °C): 3.3 Wt. %
Linear/Branched Aldehyde Mole Ratio [4]: 5.6
Reaction Rate (C4 aldehydes) [4]: 0.70 Gmoles/L/Hr

O=S(=O)(O)c1cccc(P(c2ccccc2)c2ccccc2)c1 [TPPMS-Ba, monosulfonated triphenylphosphine barium salt]
Metal Salt Solubility [1]: 33 Wt. %
Linear/Branched Aldehyde Mole Ratio [6, 23]: 10.0
Reaction Rate [6, 23]: 1.22 G moles/L/hr
Linear/Branched Aldehyde Mole Ratio [6, 24]: 9.4
Reaction Rate [6, 24]: 0.45 G moles/L/hr
Linear/Branched Aldehyde Mole Ratio [6, 25]: 10.9
Reaction Rate [6, 25]: 0.76 G moles/L/hr
Linear/Branched Aldehyde Mole Ratio [2, 26]: 6.91
Rate (C5 aldehydes), daily average [2, 26]: 2.07 gmoles/L/Hr
Linear/Branched Aldehyde Mole Ratio [2, 27]: 7.10
Rate (C5 aldehydes), daily average [2, 27]: 2.10 gmoles/L/Hr
Linear/Branched Aldehyde Mole Ratio [2, 28]: 7.12
Rate (C5 aldehydes), daily average [2, 28]: 2.51 gmoles/L/Hr
Linear/Branched Aldehyde Mole Ratio [2, 29]: 7.03
Rate (C5 aldehydes), daily average [2, 29]: 2.52 gmoles/L/Hr
Linear/Branched Aldehyde Mole Ratio [2, 30]: 6.32
Rate (C5 aldehydes), daily average [2, 30]: 2.71 gmoles/L/Hr
Linear/Branched Aldehyde Mole Ratio [2, 31]: 6.02
Rate (C5 aldehydes), daily average [2, 31]: 2.60 gmoles/L/Hr
Linear/Branched Aldehyde Mole Ratio [2, 32]: 6.16
Rate (C5 aldehydes), daily average [2, 32]: 2.71 gmoles/L/Hr
Linear/Branched Aldehyde Mole Ratio [2, 33]: 6.01
Rate (C5 aldehydes), daily average [2, 33]: 2.73 gmoles/L/Hr
Linear/Branched Aldehyde Mole Ratio [2, 34]: 6.20
Rate (C5 aldehydes), daily average [2, 34]: 2.46 gmoles/L/Hr
Linear/Branched Aldehyde Mole Ratio [2, 35]: 6.14
Rate (C5 aldehydes), daily average [2, 35]: 2.37 gmoles/L/Hr
Linear/Branched Aldehyde Mole Ratio [2, 36]: 5.85
Rate (C5 aldehydes), daily average [2, 36]: 2.30 gmoles/L/Hr
Metal Salt Solubility ([3]; Butyraldehyde, 60 °C): 0.6 Wt. %
Metal Salt Solubility ([3]; Heptanal, 80 °C): 0.2 Wt. %
Metal Salt Solubility ([3]; Nonanal, 80 °C): 0.2 Wt. %
Metal Salt Solubility ([3]; Propionaldehyde, 35 °C): 0.5 Wt. %
Metal Salt Solubility ([3]; Tridecanal, 80 °C): 0.3 Wt. %
Metal Salt Solubility ([3]; Valeraldehyde, 80 °C): 0.1 Wt. %
Linear/Branched Aldehyde Mole Ratio [4]: 4.1
Reaction Rate (C4 aldehydes) [4]: 1.43 Gmoles/L/Hr

Source: patent US4731486A, “Hydroformylation using low volatile phosphine ligands” (Union Carbide Corporation, priority 1986, dated 1988)
